Experimental data as given in patent US9109048B2, “Inhibition of tumor growth” (priority 1998, dated 2015).
Square brackets hold non-standard residues; d marks the D form. Bip = N[C@@H](Cc1ccc(-c2ccccc2)cc1)C(=O)O

Assays:
C26 colon carcinoma = experiment: Murine C26 colon carcinoma model; assay type: in vivo, Balb/c mice
Method: The antitumoral activity of the peptide, Ad-LFB 14-31 A2,3,6,10,17,F7,R4,K11,L14-NH2, (NDDO1) was tested in a murine C26 colon carcinoma model established in syngenic Balb/c mice. C26 cells (5×10^6 cells in 50 μl) cells were inoculated subcutaneously on the abdomen of the mice (3 animals) and grown into proper size (20-30 mm^2) before treatment start. At day 7 the tumors were treated intra-tumorally with 0.5 mg/50 μl peptide once a day for three consecutive days and the progression was followed. […] In this mouse C26 tumor cells (5×10^6 cells in 50 μl) were re-inoculated subcutaneously three weeks after peptide treatment.

[1] = system: A20 B-cell lymphoma tumor; experiment: Re-inoculation of A20 cells after successful peptide treatment; assay type: in vivo, Balb/c mice; settings: no further administration of peptides
From the text: b) Mice in which a A20 B-cell lymphoblast tumor had successfully been eradicated as described above were re-inoculated with 5×10^6 cells of A20 B-cell lymphoma tumor. Untreated mice served as a negative control. No further administration of peptides or any other anti-tumor agents took place.

[2] = system: Meth A cells (murine sarcoma cell line); experiment: Cytotoxicity on Meth A cells, MTT method
Method: Peptide solutions (0.1 ml) were added and the plates incubated at 37° C. for 30 minutes, 4 hours or 24 hours. The cytotoxicity was measured using the MTT method (Mosmann et al., J. Immunol. (1986) 136, 2348-2357).
Cells in the growth phase were harvested and washed in fresh medium and injected subcutaneously into the abdominal region of the mice.
The cytotoxic effect of the peptides on different murine and human tumor cells were measured using the MTT method (Mosmann et al., J. Immunol. (1986) 136, 2348-2357).
MTT is a soluble tetrazolium salt yielding a yellow solution when prepared in media or salt solutions lacking phenol red. Dissolved MTT is converted to an insoluble purple formazan by cleavage of the tetrazolium ring by dehydrogenase enzymes. This water insoluble formazan can be solubilized using isopropanol or other solvents and the dissolved material is measured spectrophotometrically. The absorbance was measured as a function of concentration of converted dye.
Cells were maintained in […] medium containing 10% FBS, 1% L-glutamine and 0.1% penicillin and streptomycin. Cells to be used in the assay were grown to confluency, trypsinated and split to single cell suspension, counted and centrifuged at 1500 rpm for 10 min. […][…] of cell suspension was transferred to each well on a 96-well microtiter plate. The cells were stimulated by adding […] of various concentrations of peptides diluted with assay medium to each well. The final concentrations of peptide were for example: 5, 10, 20, 40, 60, 80, 100, and 200 mg/ml. […] As a negative control only medium was added to the cells, and as a positive control (100% killing) 1% triton X-100 was added. Following an incubation period of 4 h., 20 ml MTT dissolved in PBS at a concentration of 5 mg/ml was added to each well, and the plate was incubated further for 2 h. 130 ml of the supernatant were then removed and […] acid alcohol (0.04-0.1 N HCl in isopropanol) added to each well to dissolve the dark blue crystals. The plate was placed on a shaker for 1 h and read spectrophotometrically at 590 nm in a microtiterplate reader using the Softmaxâ program.

Meth A tumor cells = experiment: Reinoculation of Meth A cells after successful treatment; assay type: in vivo, mice; settings: reinoculation 1 month after successful treatment, no further treatment
[3] = system: A20 B-cell lymphoblastoma; experiment: Adoptive transfer of spleen cells from cured mice; assay type: in vivo, Balb/c mice; settings: donors cured with the peptide; versus naive donors
Method: Syngenic Balb/c mice were selected as a model system to investigate the long-term anti-tumor immunity conferred by an initial treatment with a lytic peptide (H2N-WKKWdipKKWK-COOH—Mod 39 (SEQ ID NO: 42)) against A20 B-cell lymphoblastoma. Tumour cells (5×10^6) were inoculated subcutaneously on the abdomen of the mice and grown into proper size (20-30 mm^2) before treatment start. The mice were treated intra-tumorally with 0.5 mg/50 μl peptide once a day for three consecutive days and the progression was followed. Mice that were successfully treated were selected as donors (treated donor) for adoptive transfer of spleen cells, 3 weeks after tumor eradication.
Day 1—Naive acceptor mice were subjected to a Total Body Irradiation (TBI) of 500 cGy in preparation for receiving adoptive transfer of immune cells from spleen donors.
Day 2—Single-cell suspensions of spleenocytes depleted of red blood cells from treated donor mice and naïve mice were prepared as previously described (Ward, B. A. et al., J. Immunology Aughust 1988, vol 141 p 1047), except that sterile H2O was used instead of ammonium chloride to eliminate red blood cells.
Donor spleen cells (approximately 40 million) were injected i.v. into the tail vein of acceptor mice according to the methods described in Bogen B. et al., Eur J Immunology, May 1983, vol 13(5), pages 353-359. […]

[4] = assay type: physicochemical
From the text: Peptide W3714, with three additional tryptophan residues (a total of five tryptophan residues in the peptide), has decreased activity. […] This has been physically observed during MIC testing procedures when the peptide tended to precipitate at high concentrations.

For “Ad-LFB 14-31 A2,3,6,10,17,F7,R4,K11,L14-NH2 [NDDO1]”, the “primary effect on C26 colon carcinoma” value (C26 colon carcinoma; 3 animals, 0.5 mg/50 μl intra-tumorally once a day for three days) was “In one mouse full tumor regression was obtained” and the “effect of re-inoculating C26 cells” value (C26 colon carcinoma; re-inoculated three weeks after peptide treatment, no further treatment) was “A regression of the tumor after an initial growth was obtained without any further treatment”.

With “H2N-FKCRRWQWRMKKLGAPSITCVRRAF-COOH (H-FKCRRWQWRMKKLGAPSITCVRRAF-OH; ends and bridges not checked) [Cyclic LFB, enzymatically cleaved fragment of bovine lactoferrin, from Morinaga, reference compound]” the “tumor growth after re-inoculation of A20 cells” value [1] was “no further growth occurred”, the “concentration at which Meth A cells were effectively killed” value ([2]; Meth A cells 1×10^4/ml, 4 h incubation (FIG. 2)) was “higher than 0.8 mg/ml” and the “Meth A cells killed” value ([2]; at concentrations higher than 0.8 mg/ml) was “more than 99%”. The “tumor establishment after reinoculation of Meth A cells” value (Meth A tumor cells) was “some storm of adaptive immunity is shown”.

In the case of “H2N-KAAKKAbipKAAKAbipKKAA-COOH (H-KAAKKA[Bip]KAAKA[Bip]KKAA-OH; SMILES C[C@H](NC(=O)[C@H](C)NC(=O)[C@H](CCCCN)NC(=O)[C@H](CCCCN)NC(=O)[C@H](Cc1ccc(-c2ccccc2)cc1)NC(=O)[C@H](C)NC(=O)[C@H](CCCCN)NC(=O)[C@H](C)NC(=O)[C@H](C)NC(=O)[C@H](CCCCN)NC(=O)[C@H](Cc1ccc(-c2ccccc2)cc1)NC(=O)[C@H](C)NC(=O)[C@H](CCCCN)NC(=O)[C@H](CCCCN)NC(=O)[C@H](C)NC(=O)[C@H](C)NC(=O)[C@@H](N)CCCCN)C(=O)O) [Peptide C12]”, the “time until the re-inoculated A20 tumor completely disappeared” value [1] is reported as 6 days.

With H2N-WKKWdipKKWK-COOH [L-Mod 39] the “time until the re-inoculated A20 tumor completely disappeared” value [1] was 10 days.

In the case of H2N-WKKWdipKKWK-COOH [Model 39], the “rejection of implanted A20 tumors in acceptors of spleen cells from cured mice” value [3] is reported as “able to reject implanted tumors”.

With “H-FKWRRWWWRMKKLWA-OH [LFBW3,7,14, H2N-Phe-Lys-Trp-Arg-Arg-Trp-Trp-Trp-Arg-Met-Lys-Lys-Leu-Trp-Ala-COOH]” the “solubility in aqueous solutions” value [4] was “less soluble in aquous solutions”.
